Measured values published in paper PMC9250534, “Synthesis and direct assay of large macrocycle diversities by combinatorial late-stage modification at picomole scale” (Nature Communications, 2022).
Numbered stars: 1 amine (or outer) side, 2 acyl side, 3 side chain; on linkers, the order of the positions; unused ones are H or OH. Bridge positions count the residues as written; N and C are the ends. Square brackets hold non-standard residues; d marks the D form. Peptide text beside a SMILES is read from it. * marks the point of attachment. ξ: configuration not given here. Pro(cis-4-NH-(E)-Cinnamoyl) = O=C(/C=C/c1ccccc1)N[C@@H]1CN[C@H](C(=O)O)C1; ξPro(4-NHCO(5-Cl-2-thienyl)) = O=C(NC1CNC(C(=O)O)C1)c1ccc(Cl)s1; ξPro(4ξ-NHCOC6H4-4-Cl) = O=C(NC1CNC(C(=O)O)C1)c1ccc(Cl)cc1; 2Thenoyl(5-Cl) = O=C(c1ccc(Cl)s1)*; Benzoyl(4-Cl) = O=C(c1ccc(Cl)cc1)*; Cysteamide = C(CS[*:3])N[*:1]; X1 = O=C(/C=C/c1ccccc1)*; Dap = NC[C@H](N)C(=O)O; Mpa = O=C(O)CCS

Biological target: MDM2 (Homo sapiens, UniProt Q00987)
Sequence (Q00987 whole entry): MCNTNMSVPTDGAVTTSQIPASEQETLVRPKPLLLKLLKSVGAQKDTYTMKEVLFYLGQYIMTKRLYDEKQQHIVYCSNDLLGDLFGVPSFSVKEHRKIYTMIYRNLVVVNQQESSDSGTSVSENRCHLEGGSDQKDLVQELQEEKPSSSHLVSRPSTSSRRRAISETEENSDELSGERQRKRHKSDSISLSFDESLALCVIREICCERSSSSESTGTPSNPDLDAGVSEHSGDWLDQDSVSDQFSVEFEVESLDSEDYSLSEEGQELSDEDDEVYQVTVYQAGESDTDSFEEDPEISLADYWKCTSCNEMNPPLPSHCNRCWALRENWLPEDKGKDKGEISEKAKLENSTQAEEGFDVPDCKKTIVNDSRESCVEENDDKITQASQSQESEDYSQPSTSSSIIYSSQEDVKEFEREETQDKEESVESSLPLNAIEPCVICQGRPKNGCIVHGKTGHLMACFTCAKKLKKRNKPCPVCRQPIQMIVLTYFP
Experiment: MDM2 binding screen: displacement of fluorescent p53 peptide probe FP53 (fluorescence polarization)
Conditions: crude macrocycle reactions; for fraction fluorescent probe displaced, Screen: initial screen
How it was run: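 Macrocycle reaction products at a final 10 µM were tested for displacement of a p53-based fluorescent peptide from human MDM2. Fluorescence anisotropy (ex 485/em 535 nm) was read once per macrocycle at 25 °C.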

| Structure (SMILES) | fraction fluorescent probe displaced, Screen (Acid 14) | fraction fluorescent probe displaced, Replicate (Acid 14) | fraction fluorescent probe displaced, Screen (Acid 25) | fraction fluorescent probe displaced, Replicate (Acid 25) | fraction fluorescent probe displaced, Screen (Acid 91) | fraction fluorescent probe displaced, Replicate (Acid 91) |
| --- | --- | --- | --- | --- | --- | --- |
| O=C1CCSSCCNC(=O)[C@H](Cc2c[nH]c3ccccc23)NC(=O)[C@@H]2CCCN2C(=O)[C@H](CNC(=O)c2ccc(Cl)s2)N1 [X D3 B1 W Acid 14] ([Mpa][Dap](2Thenoyl(5-Cl))PW-Cysteamide; disulfide 1-C) | 0.17 | 0.10 |  |  |  |  |
| O=C1CCSSCCNC(=O)[C@H](Cc2c[nH]c3ccccc23)NC(=O)[C@@H]2CCCN2C(=O)[C@H](CNC(=O)c2ccc(Cl)cc2)N1 [X D3 B1 W Acid 25] ([Mpa][Dap](Benzoyl(4-Cl))PW-Cysteamide; disulfide 1-C) |  |  | 0.28 | 0.15 |  |  |
| O=C(/C=C/c1ccccc1)NC[C@@H]1NC(=O)CCSSCCNC(=O)[C@H](Cc2c[nH]c3ccccc23)NC(=O)[C@@H]2CCCN2C1=O [X D3 B1 W Acid 91] ([Mpa][Dap](X1)PW-Cysteamide; disulfide 1-C) |  |  |  |  | -0.0241 | 0.04 |
| O=C1CCSSCCNC(=O)[C@H](Cc2ccccc2)NC(=O)CCNC(=O)[C@H](CNC(=O)c2ccc(Cl)s2)N1 [X D3 B2 F Acid 14] | 0.17 | 0.10 |  |  |  |  |
| O=C(/C=C/c1ccccc1)NC[C@@H]1NC(=O)CCSSCCNC(=O)[C@H](Cc2ccccc2)NC(=O)CCNC1=O [X D3 B2 F Acid 91] |  |  |  |  | 0.08 | 0.04 |
| O=C1CCSSCCNC(=O)[C@H](Cc2c[nH]c3ccccc23)NC(=O)CCNC(=O)[C@H](CNC(=O)c2ccc(Cl)s2)N1 [X D3 B2 W Acid 14] | 0.17 | 0.25 |  |  |  |  |
| O=C1CCSSCCNC(=O)[C@H](Cc2c[nH]c3ccccc23)NC(=O)CCNC(=O)[C@H](CNC(=O)c2ccc(Cl)cc2)N1 [X D3 B2 W Acid 25] |  |  | 0.12 | 0.0465 |  |  |
| O=C(C=Cc1ccccc1)NCC1NC(=O)CCSSCCNC(=O)C(Cc2c[nH]c3ccccc23)NC(=O)CCNC1=O (stereo not drawn) [X D3 B2 W Acid 91] |  |  |  |  | 0.11 | -0.0333 |
| O=C1CCSSCCNC(=O)[C@H](Cc2ccccc2)NC(=O)[C@H]2CCCN(C2)C(=O)[C@H](CNC(=O)c2ccc(Cl)s2)N1 [X D3 B4 F Acid 14] | 0.0241 | 0.10 |  |  |  |  |
| O=C1CCSSCCNC(=O)[C@H](Cc2c[nH]c3ccccc23)NC(=O)[C@H]2CCCN(C2)C(=O)[C@H](CNC(=O)c2ccc(Cl)s2)N1 [X D3 B4 W Acid 14] | 0.08 | 0.12 |  |  |  |  |
| O=C1CCSSCCNC(=O)[C@H](Cc2c[nH]c3ccccc23)NC(=O)[C@H]2CCCN(C2)C(=O)[C@H](CNC(=O)c2ccc(Cl)cc2)N1 [X D3 B4 W Acid 25] |  |  | 0.25 | 0.20 |  |  |
| O=C(C=Cc1ccccc1)NCC1NC(=O)CCSSCCNC(=O)C(Cc2c[nH]c3ccccc23)NC(=O)C2CCCN(C2)C1=O (stereo not drawn) [X D3 B4 W Acid 91] |  |  |  |  | 0.11 | 0.09 |
| O=C(/C=C/c1ccccc1)NC[C@@H]1NC(=O)CCSSCCNC(=O)[C@H](Cc2ccccc2)NC(=O)c2cccc(c2)CNC1=O [X D3 B5 F Acid 91] |  |  |  |  | -0.18 | -0.0333 |
| O=C1CCSSCCNC(=O)[C@H](Cc2c[nH]c3ccccc23)NC(=O)c2cccc(c2)CNC(=O)[C@H](CNC(=O)c2ccc(Cl)s2)N1 [X D3 B5 W Acid 14] | 0.14 | 0.20 |  |  |  |  |
| O=C1CCSSCCNC(=O)[C@H](Cc2c[nH]c3ccccc23)NC(=O)c2cccc(c2)CNC(=O)[C@H](CNC(=O)c2ccc(Cl)cc2)N1 [X D3 B5 W Acid 25] |  |  | 0.25 | 0.10 |  |  |
| O=C(C=Cc1ccccc1)NCC1NC(=O)CCSSCCNC(=O)C(Cc2c[nH]c3ccccc23)NC(=O)c2cccc(c2)CNC1=O (stereo not drawn) [X D3 B5 W Acid 91] |  |  |  |  | 0.08 | 0.14 |
| O=C(/C=C/c1ccccc1)NC[C@@H]1NC(=O)CCSSCCNC(=O)[C@@H]2CCCN2C(=O)[C@H](Cc2ccccc2)NC1=O [X D3 F B1 Acid 91] ([Mpa][Dap](X1)FP-Cysteamide; disulfide 1-C) |  |  |  |  | -0.05 | -0.06 |
| O=C1CCNC(=O)[C@H](Cc2ccccc2)NC(=O)[C@H](CNC(=O)c2ccc(Cl)s2)NC(=O)CCSSCCN1 [X D3 F B2 Acid 14] | 0.053 | 0.10 |  |  |  |  |

| Structure (SMILES) | fraction fluorescent probe displaced, Screen (Acid 14) | fraction fluorescent probe displaced, Replicate (Acid 14) | fraction fluorescent probe displaced, Screen (Acid 25) | fraction fluorescent probe displaced, Replicate (Acid 25) | fraction fluorescent probe displaced, Screen (Acid 91) | fraction fluorescent probe displaced, Replicate (Acid 91) |
| --- | --- | --- | --- | --- | --- | --- |
| O=C1CCNC(=O)[C@H](Cc2ccccc2)NC(=O)[C@H](CNC(=O)c2ccc(Cl)cc2)NC(=O)CCSSCCN1 [X D3 F B2 Acid 25] |  |  | -0.00813 | 0.0211 |  |  |
| O=C(/C=C/c1ccccc1)NC[C@@H]1NC(=O)CCSSCCNC(=O)CCNC(=O)[C@H](Cc2ccccc2)NC1=O [X D3 F B2 Acid 91] |  |  |  |  | 0.0563 | -0.0333 |
| O=C1CCSSCCNC(=O)[C@H]2CCCN(C2)C(=O)[C@H](Cc2ccccc2)NC(=O)[C@H](CNC(=O)c2ccc(Cl)s2)N1 [X D3 F B4 Acid 14] | 0.053 | -0.03 |  |  |  |  |
| O=C1CCSSCCNC(=O)c2cccc(c2)CNC(=O)C(Cc2ccccc2)NC(=O)C(CNC(=O)c2ccc(Cl)cc2)N1 (stereo not drawn) [X D3 F B5 Acid 25] |  |  | 0.0569 | 0.10 |  |  |
| O=C1CCSSCCNC(=O)[C@@H]2CCCN2C(=O)[C@H](Cc2c[nH]c3ccccc23)NC(=O)[C@H](CNC(=O)c2ccc(Cl)s2)N1 [X D3 W B1 Acid 14] ([Mpa][Dap](2Thenoyl(5-Cl))WP-Cysteamide; disulfide 1-C) | 0.14 | 0.17 |  |  |  |  |
| O=C1CCSSCCNC(=O)[C@@H]2CCCN2C(=O)[C@H](Cc2c[nH]c3ccccc23)NC(=O)[C@H](CNC(=O)c2ccc(Cl)cc2)N1 [X D3 W B1 Acid 25] ([Mpa][Dap](Benzoyl(4-Cl))WP-Cysteamide; disulfide 1-C) |  |  | 0.12 | 0.22 |  |  |
| O=C1CCNC(=O)[C@H](Cc2c[nH]c3ccccc23)NC(=O)[C@H](CNC(=O)c2ccc(Cl)s2)NC(=O)CCSSCCN1 [X D3 W B2 Acid 14] | 0.23 | 0.20 |  |  |  |  |
| O=C1CCNC(=O)[C@H](Cc2c[nH]c3ccccc23)NC(=O)[C@H](CNC(=O)c2ccc(Cl)cc2)NC(=O)CCSSCCN1 [X D3 W B2 Acid 25] |  |  | 0.15 | 0.20 |  |  |
| O=C(/C=C/c1ccccc1)NC[C@@H]1NC(=O)CCSSCCNC(=O)CCNC(=O)[C@H](Cc2c[nH]c3ccccc23)NC1=O [X D3 W B2 Acid 91] |  |  |  |  | 0.19 | 0.0168 |
| O=C1CCSSCCNC(=O)[C@H]2CCCN(C2)C(=O)[C@H](Cc2c[nH]c3ccccc23)NC(=O)[C@H](CNC(=O)c2ccc(Cl)s2)N1 [X D3 W B4 Acid 14] | 0.20 | 0.0465 |  |  |  |  |
| O=C(/C=C/c1ccccc1)NC[C@@H]1NC(=O)CCSSCCNC(=O)[C@H]2CCCN(C2)C(=O)[C@H](Cc2c[nH]c3ccccc23)NC1=O [X D3 W B4 Acid 91] |  |  |  |  | 0.14 | 0.04 |
| O=C1CCSSCCNC(=O)c2cccc(c2)CNC(=O)[C@H](Cc2c[nH]c3ccccc23)NC(=O)[C@H](CNC(=O)c2ccc(Cl)s2)N1 [X D3 W B5 Acid 14] | 0.26 | 0.22 |  |  |  |  |
| O=C1CCSSCCNC(=O)c2cccc(c2)CNC(=O)[C@H](Cc2c[nH]c3ccccc23)NC(=O)[C@H](CNC(=O)c2ccc(Cl)cc2)N1 [X D3 W B5 Acid 25] |  |  | 0.35 | 0.28 |  |  |
| O=C(/C=C/c1ccccc1)NC[C@@H]1NC(=O)CCSSCCNC(=O)c2cccc(c2)CNC(=O)[C@H](Cc2c[nH]c3ccccc23)NC1=O [X D3 W B5 Acid 91] |  |  |  |  | 0.24 | 0.32 |
| O=C(NC1CC2C(=O)N3CCCC3C(=O)NC(Cc3ccccc3)C(=O)NCCSSCCC(=O)N2C1)c1ccc(Cl)cc1 (stereo not drawn) [X D5 B1 F Acid 25] ([Mpa][ξPro(4ξ-NHCOC6H4-4-Cl)]PF-Cysteamide; disulfide 1-C; configuration not given here) |  |  | -0.07 | 0.12 |  |  |
| O=C(NC1CC2C(=O)N3CCCC3C(=O)NC(Cc3c[nH]c4ccccc34)C(=O)NCCSSCCC(=O)N2C1)c1ccc(Cl)s1 (stereo not drawn) [X D5 B1 W Acid 14] ([Mpa][ξPro(4-NHCO(5-Cl-2-thienyl))]PW-Cysteamide; disulfide 1-C; configuration not given here) | 0.17 | 0.0465 |  |  |  |  |
| O=C(NC1CC2C(=O)N3CCCC3C(=O)NC(Cc3c[nH]c4ccccc34)C(=O)NCCSSCCC(=O)N2C1)c1ccc(Cl)cc1 (stereo not drawn) [X D5 B1 W Acid 25] ([Mpa][ξPro(4ξ-NHCOC6H4-4-Cl)]PW-Cysteamide; disulfide 1-C; configuration not given here) |  |  | 0.25 | 0.15 |  |  |
| O=C(/C=C/c1ccccc1)N[C@H]1C[C@H]2C(=O)N3CCC[C@H]3C(=O)N[C@@H](Cc3c[nH]c4ccccc34)C(=O)NCCSSCCC(=O)N2C1 [X D5 B1 W Acid 91] ([Mpa][Pro(cis-4-NH-(E)-Cinnamoyl)]PW-Cysteamide; disulfide 1-C) |  |  |  |  | 0.03 | 0.07 |
